Test results from article PMC12621569 (Antiviral research, 2025).
Where two headings read alike, the source gives them in different places.

What was measured:
[1] = biological target: B/Victoria neuraminidase (NA); format: biochemical, influenza B/Victoria lineage virus
[2] = biological target: A (H1N1)pdm09 neuraminidase (NA); format: biochemical, influenza A (H1N1)pdm09 virus; settings: read-out: IC50 Median
[3] = biological target: A (H3N2) neuraminidase (NA) (Influenza A virus (H3N2), UniProt V9SU56); format: biochemical
A(H3N2) viruses = format: cell-based, influenza A(H3N2) virus; settings: read-out: Median EC50
type A viruses = settings: cited from earlier work
A(H1N1)pdm09 viruses = format: cell-based, influenza A(H1N1)pdm09 virus; settings: read-out: Median EC50
B/Victoria viruses = format: cell-based, influenza B/Victoria lineage virus
[4] = test system: influenza B virus infections; settings: human, in vivo; cited from earlier work
[5] = test system: type B versus type A viruses; settings: cited from earlier work

CCC(CC)[C@H](NC(C)=O)[C@@H]1[C@H](O)[C@@H](C(=O)O)C[C@H]1N=C(N)N [Peramivir, peramivir]
IC50 ([1]; read-out: IC50 Mean ± SD): 350 ± 110 pM
IC50 ([1]; read-out: IC50 Median): 330 pM
IC50 ([1]; read-out: IC50 Range): 140 to 880 pM
IC50 [2]: 70 pM
IC50 ([3]; read-out: IC50 Mean ± SD): 90 ± 20 pM
IC50 ([3]; read-out: IC50 Median): 80 pM
IC50 ([3]; read-out: IC50 Range): 50 to 250 pM

O=C1c2c(O)c(=O)ccn2N([C@@H]2c3ccccc3SCc3c2ccc(F)c3F)[C@@H]2COCCN12 [Baloxavir, baloxavir]
EC50 (A(H3N2) viruses): 580 pM
elevated baloxavir EC50 (type A viruses): • Treatment-emergent • Rarely as natural polymorphisms • Confer elevated baloxavir EC50 (4–112-fold)
EC50 (A(H1N1)pdm09 viruses): 800 pM
median EC50 for B/Victoria viruses, fold higher than influenza A subtypes (B/Victoria viruses): 5–7 fold
EC50 (B/Victoria viruses; read-out: Median EC50): 4060 pM
effectiveness in treatment [4]: more effective than oseltamivir

CCOC(=O)C1=C[C@@H](OC(CC)CC)[C@H](NC(C)=O)[C@@H](N)C1 [Oseltamivir, oseltamivir]
lower activity against type B versus type A viruses [5]: 47- to 80 fold
clinical effects against influenza B compared to influenza A virus infections [4]: reduced effects
